Activity calls are given as the source filed them. The calls are words filed in the database; no cut-off is given here.
Tests used:
HepG2 [1] = test: Induction of autophagy in human HepG2 cells assessed as ratio of LC3-2 level to total ERK level at 0.5 uM after 2 hrs in presence of PFK15 by Western blot analysis (reference value: 1.1); assay type: functional
[2] = biological target: Serine/threonine-protein kinase mTOR (Homo sapiens) (UniProt P42345); test: Inhibition of mTOR phosphorylation at S2448 residue in human HepG2 cells assessed as ratio of phosphorylated mTOR to total ERK level at 0.1 uM after 4 hrs by Western blot analysis (reference value: 1); assay type: cell-based
HepG2 [3] = test: Activation of AMPKalpha in human HepG2 cells assessed as ratio of phosphorylated AMPKalpha at T172 residue to total ERK level at 0.5 uM incubated for 4 hrs by Western blot analysis (reference value: 1); assay type: cell-based
[4] = biological target: Serine/threonine-protein kinase mTOR (Homo sapiens) (UniProt P42345); test: Inhibition of mTOR phosphorylation at S2448 residue in human HepG2 cells assessed as ratio of phosphorylated mTOR to total mTOR level at 0.1 uM after 4 hrs by Western blot analysis (reference value: 1); assay type: cell-based
HepG2 [5] = test: Induction of autophagy in human HepG2 cells ratio of LC3-2 level to total ERK level at 0.5 uM after 2 hrs in presence of PFKFB3 siRNA and CQ by Western blot analysis relative to PFKFB3 siRNA; assay type: functional
HepG2 [6] = test: Induction of autophagy in human HepG2 cells assessed as ratio of LC3-2 to total Erk1/2 protein level at 0.5 uM after 12 hrs in presence of CQ by Western blot analysis (reference value: 3.9); assay type: functional
HepG2 [7] = test: Induction of autophagy in human HepG2 cells assessed as ratio of LC3-2 level to total ERK level at 0.5 uM after 2 hrs in presence of PFKFB3 siRNA and CQ by Western blot analysis (reference value: 0.8); assay type: functional
SW480 = test: Antiproliferative activity against human SW480 cells assessed as reduction in cell viability by MTS assay; assay type: functional, cell-based
HepG2 [8] = test: Induction of autophagy in human HepG2 cells assessed as ratio of LC3-2 level to total ERK level at 0.5 uM after 2 hrs in presence of PFK15 and CQ by Western blot analysis relative to PFK15; assay type: functional
T-24 [9] = test: Induction of autophagy in human T24 cells assessed as increase in ratio of LC3-2 to total Erk1/2 protein level at 0.5 uM after 12 hrs by Western blot analysis; assay type: functional, cell-based
MCF7 = test: Antiproliferative activity against human MCF7 cells assessed as reduction in cell viability by MTS assay; assay type: functional, cell-based
A549 = test: Antiproliferative activity against human A549 cells assessed as reduction in cell viability by MTS assay; assay type: functional, cell-based
[10] = biological target: Serine/threonine-protein kinase mTOR (Homo sapiens) (UniProt P42345); test: Inhibition of mTOR phosphorylation at S2448 residue in human HepG2 cells assessed as ratio of phosphorylated mTOR to total ERK level at 0.25 uM after 4 hrs by Western blot analysis (reference value: 1); assay type: cell-based
[11] = biological target: RAC-alpha serine/threonine-protein kinase (Homo sapiens) (UniProt P31749); test: Inhibition of AKT phosphorylation at S473 residue in human HepG2 cells assessed as ratio of phosphorylated Akt to total Akt level at 0.5 uM after 4 hrs by Western blot analysis (reference value: 1); assay type: cell-based
RAC-alpha serine/threonine-protein kinase (Homo sapiens), sequence (P31749 whole entry): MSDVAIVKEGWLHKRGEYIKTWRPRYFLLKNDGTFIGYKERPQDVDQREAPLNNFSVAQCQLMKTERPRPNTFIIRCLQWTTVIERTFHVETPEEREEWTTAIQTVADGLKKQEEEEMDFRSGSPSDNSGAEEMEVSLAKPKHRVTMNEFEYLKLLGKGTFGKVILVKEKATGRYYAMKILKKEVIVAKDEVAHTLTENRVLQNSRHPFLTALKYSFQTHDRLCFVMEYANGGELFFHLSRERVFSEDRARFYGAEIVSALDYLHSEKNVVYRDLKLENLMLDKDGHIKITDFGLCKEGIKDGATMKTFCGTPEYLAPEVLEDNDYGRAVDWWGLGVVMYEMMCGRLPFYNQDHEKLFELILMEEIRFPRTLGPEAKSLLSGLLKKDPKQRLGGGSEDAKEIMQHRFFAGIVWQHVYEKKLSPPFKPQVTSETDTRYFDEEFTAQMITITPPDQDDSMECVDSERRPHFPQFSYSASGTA

HepG2 [12] = test: Activation of AMPKalpha in human HepG2 cells assessed as ratio of phosphorylated ACCalpha at S79 residue to total ERK level at 0.5 uM incubated for 4 hrs in presence of CC by Western blot analysis relative to CC; assay type: cell-based
HepG2 [13] = test: Induction of autophagy in human HepG2 cells assessed as ratio of LC3-2 level to total Erk1/2 protein level at 0.5 uM after 4 hrs in presence of CC and CQ by Western blot analysis relative to CC; assay type: functional
HepG2 [14] = test: Induction of autophagy in human HepG2 cells assessed as ratio of LC3-2 to total Erk1/2 protein level at 0.5 uM after 12 hrs by Western blot analysis (reference value: 1); assay type: functional
[15] = biological target: Serine/threonine-protein kinase mTOR (Homo sapiens) (UniProt P42345); test: Inhibition of mTOR phosphorylation at S2448 residue in human HepG2 cells assessed as ratio of phosphorylated mTOR to total ERK level at 0.05 uM after 4 hrs by Western blot analysis (reference value: 1); assay type: cell-based
HCT-116 = test: Antiproliferative activity against human HCT116 cells assessed as reduction in cell viability by MTS assay; assay type: functional, cell-based
T-24 [16] = test: Antiproliferative activity against human T24 cells assessed as reduction in cell viability by MTS assay; assay type: functional, cell-based
[17] = biological target: RAC-alpha serine/threonine-protein kinase (Homo sapiens) (UniProt P31749); test: Inhibition of AKT phosphorylation at S473 residue in human HepG2 cells assessed as ratio of phosphorylated Akt to total ERK level at 0.5 uM after 4 hrs by Western blot analysis (reference value: 1); assay type: cell-based
HepG2 [18] = test: Induction of autophagy in human HepG2 cells assessed as increase in LC3 puncta staining at 0.5 uM after 4 hrs by immunostaining based fluorescence microscopic analysis; assay type: functional, cell-based
HepG2 [19] = test: Induction of autophagy in human HepG2 cells ratio of LC3-2 level to total ERK level at 0.5 uM after 2 hrs in presence of 2-DG and CQ by Western blot analysis relative to 2-DG; assay type: functional
HepG2 [20] = test: Induction of autophagy in human HepG2 cells assessed as ratio of LC3-2 level to total ERK level at 0.5 uM after 2 hrs in presence of PFKFB3 siRNA by Western blot analysis (reference value: 0.8); assay type: functional
HepG2 [21] = test: Induction of autophagy in human HepG2 cells assessed as accumulation of LC3-2 protein level at 0.5 uM after 12 hrs in presence of CQ by Western blot analysis relative to CQ; assay type: functional
HepG2 [22] = test: Induction of autophagy in human HepG2 cells assessed as ratio of LC3-2 level to total ERK level at 0.5 uM after 2 hrs in presence of CQ by Western blot analysis (reference value: 1); assay type: functional
[23] = biological target: Serine/threonine-protein kinase mTOR (Homo sapiens) (UniProt P42345); test: Inhibition of mTOR phosphorylation at S2448 residue in human HepG2 cells assessed as ratio of phosphorylated mTOR to total mTOR level at 0.25 uM after 4 hrs by Western blot analysis (reference value: 1); assay type: cell-based
[24] = biological target: Serine/threonine-protein kinase mTOR (Homo sapiens) (UniProt P42345); test: Inhibition of mTOR phosphorylation at S2448 residue in human HepG2 cells assessed as ratio of phosphorylated mTOR to total mTOR level at 1 uM after 4 hrs by Western blot analysis (reference value: 1); assay type: cell-based
[25] = biological target: Serine/threonine-protein kinase mTOR (Homo sapiens) (UniProt P42345); test: Inhibition of mTOR phosphorylation at S2448 residue in human HepG2 cells assessed as ratio of phosphorylated mTOR to total ERK level at 0.5 uM after 4 hrs by Western blot analysis (reference value: 1); assay type: cell-based
HepG2 [26] = test: Induction of autophagy in human HepG2 cells assessed as ratio of LC3-2 level to total ERK level at 0.5 uM after 2 hrs by Western blot analysis (reference value: 1); assay type: functional
HepG2 [27] = test: Induction of autophagy in human HepG2 cells assessed as ratio of LC3-2 level to total ERK level at 0.5 uM after 2 hrs in presence of HK2 siRNA and CQ by Western blot analysis relative to HK2 siRNA; assay type: functional

CC[C@@]12SS[C@]3(C(=O)N1C)[C@@H](O)C1(C45c6ccccc6N[C@@H]4N4C(=O)[C@]6([C@@H](C)O)SS[C@]4(C(=O)N6C)[C@H]5O)c4ccccc4N[C@@H]1N3C2=O (some centres not stated)
Ratio (HepG2 [1]): 1.3
Ratio [2]: 0.9
Ratio (HepG2 [3]): 1.2
Ratio [4]: 1.2
fold change (FC) (HepG2 [5]): 4.8
Ratio (HepG2 [6]): 4.2
Ratio (HepG2 [7]): 4.3
Activity (SW480): Active
fold change (FC) (HepG2 [8]): 3.4
Activity (T-24 [9]): Active
Activity (MCF7): Active
Activity (A549): Active
Ratio [10]: 1
Ratio [11]: 1.4
fold change (FC) (HepG2 [12]): 0.7
fold change (FC) (HepG2 [13]): 0.9
Ratio (HepG2 [14]): 1.3
Ratio [15]: 1
Activity (HCT-116): Active
Activity (T-24 [16]): Active
Ratio [17]: 1.2
Activity (HepG2 [18]): Active
fold change (FC) (HepG2 [19]): 3.7
Ratio (HepG2 [20]): 0.9
fold change (FC) (HepG2 [21]): 3.2
Ratio (HepG2 [22]): 3.1
Ratio [23]: 1.4
Ratio [24]: 1.8
Ratio [25]: 1
Ratio (HepG2 [26]): 1.5
fold change (FC) (HepG2 [27]): 2.8

CCC1(SC)C(=O)N2[C@H]3N(C)c4ccccc4C3(C34c5ccccc5N(C)[C@@H]3N3C(=O)C(SC)([C@@H](C)O)N(C)C(=O)C3(SC)[C@H]4O)[C@H](O)C2(SC)C(=O)N1C (some centres not stated)
Ratio (HepG2 [1]): 1.6
Ratio [2]: 1
Ratio (HepG2 [3]): 1.4
Ratio [4]: 1.8
fold change (FC) (HepG2 [5]): 4.6
Ratio (HepG2 [6]): 4.4
Ratio (HepG2 [7]): 4.6
Activity (SW480): Active
fold change (FC) (HepG2 [8]): 2.4
Activity (T-24 [9]): Active
Activity (MCF7): Active
Activity (A549): Active
Ratio [10]: 1
Ratio [11]: 1.4
fold change (FC) (HepG2 [12]): 0.7
fold change (FC) (HepG2 [13]): 1.3
Ratio (HepG2 [14]): 1.2
Ratio [15]: 1
Activity (HCT-116): Active
Activity (T-24 [16]): Active
Ratio [17]: 1.1
Activity (HepG2 [18]): Active
fold change (FC) (HepG2 [19]): 3.7
Ratio (HepG2 [20]): 1
fold change (FC) (HepG2 [21]): 3.6
Ratio (HepG2 [22]): 3.2
Ratio [23]: 2.2
Ratio [24]: 2.2
Ratio [25]: 1
Ratio (HepG2 [26]): 1.6
fold change (FC) (HepG2 [27]): 6.6

Source: ChEMBL document CHEMBL4613241, “Disulfide Cleavage in a Dimeric Epipolythiodioxopiperazine Natural Product Diminishes Its Apoptosis-Inducing Effect but Enhances Autophagy in Tumor Cells” (2020)
